# Test results reported in patent publication US9340530B2, “Preparation and use of bicyclic himbacine derivatives as PAR-1 receptor antagonists” (Merck, Sharp & Dohme Corp., priority 2012, dated 2016).
# Molecular target: PAR1 (Homo sapiens (Human), UniProt P25116)
# Test: Par-1 FLIPR assay (calcium, HEK 293 cells, PAR1 activating peptide)
# Assay type: cell-based
# Conditions: PAR1 selective receptor-activating peptide at 80% activation
# Protocol: HEK 293 Cells were grown in media containing DMEM, 10% FBS pen/strep/L-Glutamine and non-essential amino acids. The cells were plated in 384-well PDL coated plates at 12000 cells/well and incubated overnight at 37° C./5% CO2. Media was then removed from the cells, which were then incubated with buffer (Hank's containing HEPES and Chaps) containing FLIPR calcium-5 dye, made with buffer containing probenecid, for 60 minutes at 37° C. Varying concentrations of compound in a final concentration of 5% DMSO were then added to the cells and incubated at 25° C. for 30 minutes. […] The FLIPR reads at an excitation wavelength of 480 nm and an emission wavelength of 535 nm, and performs 60 scans over a 1-2 min reading time. The data were analyzed by taking the peak signal over a portion of the range of the 60 scans and dividing this signal by the minimum signal for that same range.
# Sequence of PAR1 (P25116 22-425): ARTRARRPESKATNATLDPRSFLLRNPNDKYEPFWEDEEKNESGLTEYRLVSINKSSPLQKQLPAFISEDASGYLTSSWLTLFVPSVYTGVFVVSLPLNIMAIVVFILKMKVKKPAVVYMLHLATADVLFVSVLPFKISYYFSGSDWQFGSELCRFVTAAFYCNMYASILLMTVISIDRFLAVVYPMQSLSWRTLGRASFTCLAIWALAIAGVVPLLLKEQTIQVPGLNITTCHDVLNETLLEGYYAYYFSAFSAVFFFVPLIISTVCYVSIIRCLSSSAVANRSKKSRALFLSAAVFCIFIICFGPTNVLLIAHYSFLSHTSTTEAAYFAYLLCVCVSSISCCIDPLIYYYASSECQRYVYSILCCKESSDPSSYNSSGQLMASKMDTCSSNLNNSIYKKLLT
row,SMILES,IC50
1,"C[C@H]1OC(=O)[C@]2(C(O)c3ncco3)CC(F)(F)[C@@H](C)[C@H](/C=C/c3ccc(-c4ccccc4C#N)cn3)[C@H]12 (single isomer, unassigned) [Example 23a]",3.1 nM
2,"C[C@H]1OC(=O)[C@]2(C(O)c3ncco3)CC(F)(F)[C@@H](C)[C@H](/C=C/c3ccc(-c4ccccc4C#N)cn3)[C@H]12 (single isomer, unassigned) [Example 23b]",1.2 nM
3,C[C@H]1OC(=O)[C@@H]2CC(F)(F)[C@@H](C)[C@H](/C=C/c3ccc(-c4ccccc4C#N)cn3)[C@H]12 [Example 1],1.6 nM
4,C[C@H]1OC(=O)C2CC(F)(F)[C@@H](C)[C@H](/C=C/c3ccc(-c4ccccc4Cl)cn3)C21 (stereo partly drawn) [Example 4],2.7 nM
5,C[C@H]1OC(=O)C2CC(F)(F)[C@@H](C)[C@H](/C=C/c3ccc(-c4ccccc4OC(F)(F)F)cn3)C21 (stereo partly drawn) [Example 5],4.7 nM
6,C[C@H]1OC(=O)[C@]2(N)CC(F)(F)[C@@H](C)[C@H](/C=C/c3ccc(-c4ccccc4C#N)cn3)[C@H]12 [Example 7],7.2 nM
7,C[C@H]1OC(=O)[C@]2(O)CC(F)(F)[C@@H](C)[C@H](/C=C/c3ccc(-c4ccccc4C#N)cn3)[C@H]12 [Example 8],2 nM
8,C[C@H]1OC(=O)[C@]2(O)CC(F)(F)[C@@H](C)[C@H](/C=C/c3ccc(-c4ccccc4OC(F)(F)F)cn3)[C@H]12 [Example 9],4.5 nM
9,COC(=O)[C@@]12CC(F)(F)[C@@H](C)[C@H](/C=C/c3ccc(-c4cccc(F)c4)cn3)[C@@H]1[C@@H](C)OC2=O [Example 11],3.4 nM
10,C[C@H]1OC(=O)[C@]2(C(=O)O)CC(F)(F)[C@@H](C)[C@H](/C=C/c3ccc(-c4cccc(F)c4)cn3)[C@H]12 [Example 12],10.9 nM
11,C[C@H]1OC(=O)[C@]2(CO)CC(F)(F)[C@@H](C)[C@H](/C=C/c3ccc(-c4ccccc4C#N)cn3)[C@H]12 [Example 15],2.7 nM
12,C[C@H]1OC(=O)[C@]2(C(=O)NC3CCC3)CC(F)(F)[C@@H](C)[C@H](/C=C/c3ccc(-c4ccccc4C#N)cn3)[C@H]12 [Example 18],3.3 nM
13,C[C@H]1OC(=O)[C@]2(C(O)c3ccccn3)CC(F)(F)[C@@H](C)[C@H](/C=C/c3ccc(-c4ccccc4C#N)cn3)[C@H]12 (stereo partly drawn) [Example 19],3 nM
14,CC1[C@H](/C=C/c2ccc(-c3ccccc3C#N)cn2)C2[C@@H](C)OC(=O)[C@]2(C(O)c2cscn2)CC1(F)F (stereo partly drawn) [Example 20a],0.9 nM
15,C[C@H]1OC(=O)[C@]2(C(O)c3cscn3)CC(F)(F)[C@@H](C)[C@H](/C=C/c3ccc(-c4ccccc4C#N)cn3)[C@H]12 (stereo partly drawn) [Example 20b],1.2 nM
16,CC1[C@H](/C=C/c2ccc(-c3ccccc3C#N)cn2)C2[C@@H](C)OC(=O)[C@]2(C(O)c2nccs2)CC1(F)F (stereo partly drawn) [Example 21a],2.5 nM
17,C[C@H]1OC(=O)[C@]2(C(O)c3nccs3)CC(F)(F)[C@@H](C)[C@H](/C=C/c3ccc(-c4ccccc4C#N)cn3)[C@H]12 (stereo partly drawn) [Example 21b],1.2 nM
18,CC1[C@H](/C=C/c2ccc(-c3ccccc3C#N)cn2)C2[C@@H](C)OC(=O)[C@]2(C(O)c2cocn2)CC1(F)F (stereo partly drawn) [Example 22a],1.9 nM
19,C[C@H]1OC(=O)[C@]2(C(O)c3cocn3)CC(F)(F)[C@@H](C)[C@H](/C=C/c3ccc(-c4ccccc4C#N)cn3)[C@H]12 (stereo partly drawn) [Example 22b],2.2 nM
20,C[C@H]1OC(=O)[C@]2(C3(O)CNC3)CC(F)(F)[C@@H](C)[C@H](/C=C/c3ccc(-c4ccccc4C#N)cn3)[C@H]12 [Example 24],40.7 nM
21,C[C@H]1OC(=O)[C@]2(CC#N)CC(F)(F)[C@@H](C)[C@H](/C=C/c3ccc(-c4ccccc4Cl)cn3)[C@H]12 [Example 25],3.3 nM

row,SMILES,IC50
1,C[C@H]1OC(=O)[C@]2(Cc3ncon3)CC(F)(F)[C@@H](C)[C@H](/C=C/c3ccc(-c4ccccc4Cl)cn3)[C@H]12 [Example 26],1.2 nM
2,Cc1nnc(C[C@@]23CC(F)(F)[C@@H](C)[C@H](/C=C/c4ccc(-c5ccccc5Cl)cn4)[C@@H]2[C@@H](C)OC3=O)o1 [Example 28],0.9 nM
3,C[C@H]1OC(=O)[C@]2(Cc3nnn(C)n3)CC(F)(F)[C@@H](C)[C@H](/C=C/c3ccc(-c4ccccc4Cl)cn3)C12 (stereo partly drawn) [Example 29a],2.1 nM
4,Cc1cn([C@@]23CC(F)(F)[C@@H](C)[C@H](/C=C/c4ccc(-c5ccccc5C#N)cn4)[C@@H]2[C@@H](C)OC3=O)nn1 [Example 32],1.4 nM
5,Cc1nnnn1[C@@]12CC(F)(F)[C@@H](C)[C@H](/C=C/c3ccc(-c4ccccc4C#N)cn3)[C@@H]1[C@@H](C)OC2=O [Example 34],6.4 nM
6,C[C@H]1OC(=O)[C@]2(NC3CCC3)CC(F)(F)[C@@H](C)[C@H](/C=C/c3ccc(-c4ccccc4C#N)cn3)[C@H]12 [Example 36],4.1 nM
7,C[C@H]1OC(=O)[C@]2(N(C)C)CC(F)(F)[C@@H](C)[C@H](/C=C/c3ccc(-c4ccccc4C#N)cn3)[C@H]12 [Example 37],5.3 nM
8,CC1[C@H](/C=C/c2ccc(-c3ccccc3C#N)cn2)C2[C@@H](C)OC(=O)[C@]2(NCc2cccnc2)CC1(F)F (stereo partly drawn) [Example 38],4.7 nM
9,CC1[C@H](/C=C/c2ccc(-c3ccccc3C#N)cn2)C2[C@@H](C)OC(=O)[C@]2(NCc2nccs2)CC1(F)F (stereo partly drawn) [Example 39],2.2 nM
10,CC1[C@H](/C=C/c2ccc(-c3ccccc3C#N)cn2)C2[C@@H](C)OC(=O)[C@]2(NCc2ccncc2)CC1(F)F (stereo partly drawn) [Example 40],3.9 nM
11,CC1[C@H](/C=C/c2ccc(-c3ccccc3C#N)cn2)C2[C@@H](C)OC(=O)[C@]2(NCc2ncco2)CC1(F)F (stereo partly drawn) [Example 41],6.5 nM
12,CC1[C@H](/C=C/c2ccc(-c3ccccc3C#N)cn2)C2[C@@H](C)OC(=O)[C@]2(NCc2cocn2)CC1(F)F (stereo partly drawn) [Example 42],2.4 nM
13,C[C@H]1OC(=O)[C@]2(NCc3cncs3)CC(F)(F)[C@@H](C)[C@H](/C=C/c3ccc(-c4ccccc4C#N)cn3)[C@H]12 [Example 43],1.3 nM
14,C[C@H]1OC(=O)[C@]2(NCc3cscn3)CC(F)(F)[C@@H](C)[C@H](/C=C/c3ccc(-c4ccccc4C#N)cn3)[C@H]12 [Example 44],1.6 nM
15,C[C@H]1OC(=O)[C@]2(NCc3cnccn3)CC(F)(F)[C@@H](C)[C@H](/C=C/c3ccc(-c4ccccc4C#N)cn3)[C@H]12 [Example 45],4.4 nM
16,C[C@H]1OC(=O)[C@]2(NCc3ccccn3)CC(F)(F)[C@@H](C)[C@H](/C=C/c3ccc(-c4ccccc4C#N)cn3)[C@H]12 [Example 46],3.1 nM
17,C[C@H]1OC(=O)[C@]2(NCc3cncnc3)CC(F)(F)[C@@H](C)[C@H](/C=C/c3ccc(-c4ccccc4C#N)cn3)[C@H]12 [Example 47],5.7 nM
18,C[C@H]1OC(=O)[C@]2(NCc3nccn3C)CC(F)(F)[C@@H](C)[C@H](/C=C/c3ccc(-c4ccccc4C#N)cn3)[C@H]12 [Example 48],3 nM
19,C[C@H]1OC(=O)[C@]2(NC3COC3)CC(F)(F)[C@@H](C)[C@H](/C=C/c3ccc(-c4ccccc4C#N)cn3)[C@H]12 [Example 49],10.4 nM
20,C[C@H]1OC(=O)[C@]2(NCC3CC3)CC(F)(F)[C@@H](C)[C@H](/C=C/c3ccc(-c4ccccc4C#N)cn3)[C@H]12 [Example 50],2.7 nM
21,C[C@H]1OC(=O)[C@]2(NCC(C)(C)C)CC(F)(F)[C@@H](C)[C@H](/C=C/c3ccc(-c4ccccc4C#N)cn3)[C@H]12 [Example 51],10.2 nM
